Test results taken from BindingDB's records for patent US20240116892 (Ajax Therapeutics, Inc., 2024).

Molecular target: Tyrosine-protein kinase JAK2 [Y1007F,Y1008F] (Homo sapiens, UniProt O60674, Y1007F/Y1008F)
Test: JAK2 Binding Assay
Experimental: JAK2 (JH1 domain-catalytic, Y1007F, Y1008F) kinase was expressed as N-terminal fusion to the DNA binding domain of NFkB in transiently transfected HEK293 cells and subsequently tagged with DNA for qPCR detection. Streptavidin-coated magnetic beads were treated with biotinylated small molecule ligands for 30 minutes at room temperature to generate affinity resins for kinase assays. The liganded beads were blocked with excess biotin and washed with blocking buffer (SeaBlock (Pierce), 1% BSA, 0.05% Tween 20, 1 mmol/L DTT) to remove unbound ligand and to reduce nonspecific phage binding. Binding reactions were assembled by combining kinases, liganded affinity beads, and test compounds in 1× binding buffer (1× PBS, 0.05% Tween 20, 0.1% BSA, 1 mmol/L DTT). Test compound was prepared as 111× stocks in 100% DMSO and directly diluted into the assay wells. All reactions were performed in polypropylene 384-well plates in a final volume of 0.02 mL. The assay plates were incubated at room temperature with shaking for 1 hour and the affinity beads were washed with wash buffer (1× PBS, 0.05% Tween 20). The beads were then re-suspended in elution buffer (1× PBS, 0.05% Tween 20, 0.5 μmol/L non-biotinylated affinity ligand) and incubated at room temperature with shaking for 30 minutes. The kinase concentration in the eluate was measured by qPCR.

Tyrosine-protein kinase JAK2 [Y1007F,Y1008F], sequence (O60674 whole entry Y1007F/Y1008F): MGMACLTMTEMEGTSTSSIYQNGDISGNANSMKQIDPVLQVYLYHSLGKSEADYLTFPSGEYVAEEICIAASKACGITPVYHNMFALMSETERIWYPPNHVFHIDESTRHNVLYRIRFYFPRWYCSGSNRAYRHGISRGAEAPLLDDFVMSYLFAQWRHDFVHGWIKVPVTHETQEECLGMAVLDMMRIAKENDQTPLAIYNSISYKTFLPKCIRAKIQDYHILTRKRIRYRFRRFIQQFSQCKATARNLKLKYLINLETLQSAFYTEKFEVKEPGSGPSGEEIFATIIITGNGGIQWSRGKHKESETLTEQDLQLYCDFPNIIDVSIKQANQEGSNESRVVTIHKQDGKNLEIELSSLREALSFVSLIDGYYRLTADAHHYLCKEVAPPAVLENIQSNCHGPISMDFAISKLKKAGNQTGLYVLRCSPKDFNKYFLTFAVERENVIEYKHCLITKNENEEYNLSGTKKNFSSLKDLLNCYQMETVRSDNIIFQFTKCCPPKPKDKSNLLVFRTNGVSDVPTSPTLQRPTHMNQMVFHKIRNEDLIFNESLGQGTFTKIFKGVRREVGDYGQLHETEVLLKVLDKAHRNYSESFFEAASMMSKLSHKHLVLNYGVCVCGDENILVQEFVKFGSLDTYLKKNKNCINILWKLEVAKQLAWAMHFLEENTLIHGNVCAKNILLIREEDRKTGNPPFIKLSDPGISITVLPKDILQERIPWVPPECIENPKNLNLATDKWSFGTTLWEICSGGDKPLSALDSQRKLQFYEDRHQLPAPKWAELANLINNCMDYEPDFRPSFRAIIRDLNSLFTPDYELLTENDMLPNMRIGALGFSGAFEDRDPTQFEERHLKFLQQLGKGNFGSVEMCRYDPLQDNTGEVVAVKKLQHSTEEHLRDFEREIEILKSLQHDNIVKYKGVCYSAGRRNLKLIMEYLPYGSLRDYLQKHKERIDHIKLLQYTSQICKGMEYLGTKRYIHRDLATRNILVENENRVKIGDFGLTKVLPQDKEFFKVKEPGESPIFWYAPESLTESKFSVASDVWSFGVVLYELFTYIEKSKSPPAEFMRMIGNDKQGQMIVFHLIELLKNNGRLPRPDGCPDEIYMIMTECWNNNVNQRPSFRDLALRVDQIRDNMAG

Kd, < 10 nM:
Cn1cc(C(F)(F)F)cc(NC(=O)N2CCO[C@@H]3CN(c4cnc(NC(=O)C5CC5)cn4)CC[C@H]32)c1=O [US20240116892, Compound I-148-b]
CN(C(=O)Nc1cc(C(F)(F)F)cn(C)c1=O)[C@@H]1CCN(c2cnc3[nH]ncc3c2)C[C@@H]1F [US20240116892, Compound I-62-b]
CN(C(=O)Nc1cc(C(F)(F)F)cn(C)c1=O)C12CC(c3cnc4[nH]ccc4c3)(C1)C2 [US20240116892, Compound I-121]
